Laboratory results reported in paper PMC6098685 (Journal of the American Chemical Society, 2018).

What was measured:
[1] = biological target: T1, β-Glucocerebrosidase (GCase) (Homo sapiens, UniProt P04062); experiment: 4MU-β-Glc fluorescence enzyme assay; type: biochemical
T1 sequence (P04062 40-536): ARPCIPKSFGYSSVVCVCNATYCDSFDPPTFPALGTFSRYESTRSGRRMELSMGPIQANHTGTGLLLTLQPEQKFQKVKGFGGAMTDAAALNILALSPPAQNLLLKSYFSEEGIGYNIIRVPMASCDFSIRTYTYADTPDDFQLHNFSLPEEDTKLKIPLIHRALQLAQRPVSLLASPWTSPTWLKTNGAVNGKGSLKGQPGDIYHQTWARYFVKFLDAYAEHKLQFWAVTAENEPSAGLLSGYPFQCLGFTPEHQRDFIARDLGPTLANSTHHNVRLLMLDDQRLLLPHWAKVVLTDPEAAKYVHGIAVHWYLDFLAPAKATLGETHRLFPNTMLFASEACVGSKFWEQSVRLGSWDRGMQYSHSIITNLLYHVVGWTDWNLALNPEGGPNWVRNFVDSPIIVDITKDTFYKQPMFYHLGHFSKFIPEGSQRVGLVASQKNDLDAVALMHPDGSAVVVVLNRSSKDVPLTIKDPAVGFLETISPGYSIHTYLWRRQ

[2] = biological target: T1, β-Glucocerebrosidase (GCase); experiment: X-ray crystal structure; type: biochemical

SMILES | IC50 [1] [µM] | IC50 [2] [µM]
c1cncc(-c2nc(NC3Cc4ccccc4C3)c3ccccc3n2)c1 [compound 3, JZ-4109] | 0.008 | 
O=C(CCCCCCCCC#Cc1ccc2c(c1)CC(Nc1nc(-c3cccnc3)nc3ccccc13)C2)ON1C(=O)CCC1=O (centres unmarked) [compound 4, JZ-5029] |  | 0.056
